# Data as given in patent US6680311B1, “Cryptophycin compounds” (Eli Lilly and Company, priority 1996, dated 2004).
# Counter-ions that a name gives are not always drawn.
# Key:
# Format in all cases: physicochemical
# [1] = Stability in parenteral formulation; conditions: formulation 6 of Table 4, up to 3 weeks, preliminary
# [2] = Solubility in excipient / parenteral vehicles; conditions: Propylene Glycol 15 % v/v, Polyethylele Glycol 3000 20 % v/v, volume adjusted 0.05 M acetate buffer
# [3] = Aqueous solubility and stability at pH 4-8
# Procedure: A comparison of stability characteristics between 1 and 12 in aqueous Ph ranging from 4-8 was determined at room temperature for 6 hours.
smiles,measurement,setting,value
"COc1ccc(C[C@H]2NC(=O)/C=C/C[C@@H]([C@H](C)[C@@H](OC(=O)CN)[C@@H](Cl)c3ccccc3)OC(=O)[C@H](CC(C)C)OC(=O)C(C)(C)CNC2=O)cc1Cl [Compound 12, Cryptophycin 55 Glycinate Hydrochloride Salt]",stability in formulation 6,[1],acceptable stability
same,"Comparative solubility, vehicle 2",[2],>2000 µg/mL
same,course of aqueous solubility over the pH range studied,"[3]; aqueous pH 4-8, room temperature, 6 hours",remained substantially steady
same,stability in an aqueous environment,"[3]; physiological pH range, over longer periods of time",better stability
